We go through one molecule from patent publication US10399972B2, “Tricyclic compounds as inhibitors of mutant IDH enzymes” (Merck Sharp & Dohme Corp., priority 2015, dated 2019).

As usually defined, the IC50 is the concentration at which inhibition is half-maximal. Higher therefore signals weaker potency.

The target in this experiment is R132H mutant IDH1 enzyme (Homo sapiens (Human), UniProt O75874, R132H). In words: R132H IDH1 Enzymatic Assay. The settings on record: 1.5 nM final, 30 min preincubation, 60 min reaction, Kinase-GLO luminescence. The experiment is classed as biochemical.
Chain of R132H mutant IDH1 enzyme (O75874 whole entry R132H): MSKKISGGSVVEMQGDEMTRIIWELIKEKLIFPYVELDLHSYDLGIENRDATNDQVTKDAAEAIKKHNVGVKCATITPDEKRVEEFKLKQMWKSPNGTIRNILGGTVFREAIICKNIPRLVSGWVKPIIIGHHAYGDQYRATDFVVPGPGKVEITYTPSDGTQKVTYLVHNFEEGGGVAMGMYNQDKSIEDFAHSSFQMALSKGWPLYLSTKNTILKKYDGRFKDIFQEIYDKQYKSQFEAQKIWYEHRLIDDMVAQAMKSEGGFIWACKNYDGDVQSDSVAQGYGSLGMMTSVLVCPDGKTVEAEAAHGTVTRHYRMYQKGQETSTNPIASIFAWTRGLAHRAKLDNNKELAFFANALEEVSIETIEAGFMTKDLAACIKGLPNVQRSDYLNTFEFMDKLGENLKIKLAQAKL

On to `O=C(C1CCN(CC(F)(F)F)CC1)N1Cc2cccnc2Nc2cc(F)ccc21` [Example 74, (9-Fluoro-5,11-dihydro-6H-benzo[b]pyrido[2,3-e][1,4]diazepin-6-yl)(1-(2,2,2-trifluoroethyl)piperidin-4-yl)methanone], for which the IC50 stood at 174 nM.
